Source: PubChem BioAssay (NCI)
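Growth conditions: 96-well plates. Treatment: test compound, 48 hours, 5 concentrations. Analysis: linear interpolation between bracketing concentrations; unreached endpoints set to highest concentration. TGI: total growth inhibition.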

Assays:
Assay in all cases: DTP human tumour cell line panel, 48 h
OVCAR-5 ovarian = tested on: OVCAR-5 ovarian
SF-295 CNS = tested on: SF-295 CNS
SK-MEL-28 melanoma = tested on: SK-MEL-28 melanoma
HOP-92 NSCLC = tested on: HOP-92 NSCLC
UACC-257 melanoma = tested on: UACC-257 melanoma
EKVX NSCLC = tested on: EKVX NSCLC
SR leukemia = tested on: SR leukemia
MDA-MB-231 breast = tested on: MDA-MB-231 breast
HT29 colon = tested on: HT29 colon
SK-MEL-2 melanoma = tested on: SK-MEL-2 melanoma

Cc1cc2c(cc1Cl)Sc1nnc(Nc3ccccc3)n1S2(=O)=O
TGI (OVCAR-5 ovarian): > 100 µM | TGI (SF-295 CNS): 49.6 µM | TGI (SK-MEL-28 melanoma): 70.9 µM | TGI (HOP-92 NSCLC): 28.8 µM | TGI (UACC-257 melanoma): 61.2 µM | TGI (EKVX NSCLC): 34.3 µM | TGI (SR leukemia): 13.6 µM | TGI (MDA-MB-231 breast): 49.9 µM | TGI (HT29 colon): > 100 µM | TGI (SK-MEL-2 melanoma): 21.2 µM

c1ccc(CNc2c3c(nc4ccccc24)CCC3)cc1
TGI (OVCAR-5 ovarian): 51.4 µM | TGI (SF-295 CNS): 22 µM | TGI (SK-MEL-28 melanoma): 24.3 µM | TGI (HOP-92 NSCLC): 25.9 µM | TGI (UACC-257 melanoma): 29.3 µM | TGI (EKVX NSCLC): 42.9 µM | TGI (SR leukemia): 38.9 µM | TGI (MDA-MB-231 breast): 27.1 µM | TGI (HT29 colon): 50.1 µM | TGI (SK-MEL-2 melanoma): 27.2 µM

O=C(Nc1ccccc1)O/N=C(/CBr)c1ccccc1
TGI (OVCAR-5 ovarian): 36.1 µM | TGI (SF-295 CNS): 70.1 µM | TGI (SK-MEL-28 melanoma): 43.2 µM | TGI (HOP-92 NSCLC): 33.2 µM | TGI (UACC-257 melanoma): 35.5 µM | TGI (EKVX NSCLC): 35.1 µM | TGI (SR leukemia): 44.2 µM | TGI (MDA-MB-231 breast): 29.3 µM | TGI (HT29 colon): > 100 µM | TGI (SK-MEL-2 melanoma): 30.9 µM

Oc1ccc(/C=C\c2nnc(/C=C\c3ccc(O)c(O)c3)s2)cc1O
TGI (OVCAR-5 ovarian): > 86.5 µM | TGI (SF-295 CNS): 24.8 µM | TGI (SK-MEL-28 melanoma): 25.2 µM | TGI (HOP-92 NSCLC): 29.6 µM | TGI (UACC-257 melanoma): 35.7 µM | TGI (EKVX NSCLC): > 54.6 µM | TGI (SR leukemia): 5.22 µM | TGI (MDA-MB-231 breast): 56.2 µM | TGI (HT29 colon): > 75.8 µM | TGI (SK-MEL-2 melanoma): 40.7 µM
